# Laboratory results as given in patent US4654362A, “Derivatives of 2,2'-iminobisethanol” (Janssen Pharmaceutica, N.V., priority 1984, dated 1987).
# Tests used:
# guinea pig atrium (β1) = target: T1, guinea pig atrium (β1) (Cavia porcellus, UniProt H0W3H1); experiment: Guinea-pig right atrium test: inhibition of isoprenaline-induced increase in heart rate (β1-adrenergic receptor blocking activity, in vitro); details: isolated right atrium, 30 min incubation, 37.5° C., estimated graphically, read-out: ED50 value on guinea pig atrium (β1) (converted)
# T1 construct: Spontaneously beating right atria were dissected from guinea-pigs; from tissue; host or cells: guinea-pig right atrium (strip including the sinoatrial node)
# Protocol: 1. Guinea-pig right atrium (β1)
# Spontaneously beating right atria were dissected from guinea-pigs (400±50 g). A triangular strip of atrium, including the sinoatrial node was excised together with the anterior vena cava.
# The vena was fixed to a glass muscle holder and the opposite atrial muscle was connected to a Grass isometric transducer. […] Heart rate and contractile force were recorded by means of a Grass FT03C isometric transducer. Output signals amplified by an isometric transducer amplifier (J.S.I.) via a cardiotachometer (J.S.I.) were recorded on Honeywell XYY' recorder.
# After washing out isoprenaline a stabilisation period of 15 min. was allowed. A drug was then added to the bath fluid for 30 min. During this incubation period possible direct chronotropic and inotropic effects of the drug were determined. Following this, a second dose-response curve for isoprenaline was produced by infusion during 10 minutes (b). The slope of the increase in rate was graphically estimated for each period of isoprenaline addition and the ratio b/a was calculated. Based on solvent experiments a ratio of less than 0.70 was considered as the criterion of inhibitory activity. ED50 -values were estimated graphically.
# guinea pig trachea (β2) = target: T2, guinea pig trachea (β2) (Cavia porcellus, UniProt Q8K4Z4); experiment: Guinea-pig tracheal ring test: inhibition of isoprenaline-induced relaxation (β2-adrenergic receptor blocking activity, in vitro); details: for β2 /β1: ratio of ED50 trachea (β2) to ED50 right atrium (β1), index of cardioselectivity; for IC50: tracheal ring, methacholine 1 μg/ml, isoprenaline 0.08 μg/ml, 30 min, 35° C., probit analysis, read-out: ED50 value on guinea pig trachea (β2) (converted)
# T2 construct: The trachea was dissected from guinea-pigs; from tissue; host or cells: guinea-pig tracheal rings (tracheal smooth muscle)
# Excerpt: 2. Guinea-pig tracheal ring (β2)
# The trachea was dissected from guinea-pigs (400±50 g). Four rings, approximately 8 mm. in width, were then cut from each trachea. Cartilaginous parts of the tracheal ring were mounted horizontally between two metal rods, one of which was attached to a glass organholder, the other rod being connected to a Grass isometric transducer. Using such a technique the tracheal smooth muscle is suspended optimally i.e. midway between the cartilaginous parts. […] The preparation was maintained at tension of 1.5 g throughout the experiment. Tension changes recorded were thus an expression of contraction or relaxation. After a stabilisation period of 30 min. contraction was induced by adding methacholine (1 μg/ml) to the bath for a 10 min. period. […] This procedure was repeated twice before adding the drug (t-33'; t-19') and once 30 min. after addition of the drug. During the incubation period any direct effects of the drug were measured.
# The ratio of the ED50 -values obtained in respectively the tracheal ring test (β2) and in the right atrium test (β1) may be considered as an index of the cardioselectivity of the test drug.
# T2 sequence (Q8K4Z4 whole entry): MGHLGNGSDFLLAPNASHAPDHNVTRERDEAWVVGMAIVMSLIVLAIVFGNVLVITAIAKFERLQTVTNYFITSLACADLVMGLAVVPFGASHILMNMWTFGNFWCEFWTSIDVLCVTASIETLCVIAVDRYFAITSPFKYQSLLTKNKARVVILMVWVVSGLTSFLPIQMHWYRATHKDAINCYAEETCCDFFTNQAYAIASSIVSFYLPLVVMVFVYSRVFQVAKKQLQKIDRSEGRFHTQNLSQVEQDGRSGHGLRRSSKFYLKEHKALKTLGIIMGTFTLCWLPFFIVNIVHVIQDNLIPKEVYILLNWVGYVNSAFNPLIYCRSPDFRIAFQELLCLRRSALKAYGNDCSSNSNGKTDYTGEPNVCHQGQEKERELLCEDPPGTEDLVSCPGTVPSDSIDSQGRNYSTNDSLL
# T1 sequence (H0W3H1 1-470): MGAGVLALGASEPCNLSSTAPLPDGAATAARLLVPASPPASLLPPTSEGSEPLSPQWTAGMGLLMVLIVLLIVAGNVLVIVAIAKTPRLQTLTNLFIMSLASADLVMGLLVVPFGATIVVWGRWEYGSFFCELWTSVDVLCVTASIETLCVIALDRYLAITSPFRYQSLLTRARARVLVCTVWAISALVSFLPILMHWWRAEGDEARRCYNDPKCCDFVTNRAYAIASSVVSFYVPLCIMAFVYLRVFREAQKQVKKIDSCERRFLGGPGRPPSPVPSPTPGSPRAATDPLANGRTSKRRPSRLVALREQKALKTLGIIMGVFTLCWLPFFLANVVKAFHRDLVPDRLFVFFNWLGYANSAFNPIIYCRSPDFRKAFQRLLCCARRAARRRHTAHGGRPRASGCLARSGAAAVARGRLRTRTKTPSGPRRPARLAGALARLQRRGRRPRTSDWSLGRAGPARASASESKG
Structure (SMILES),IC50 (guinea pig atrium (β1)) [nM],β2 /β1 (guinea pig trachea (β2)),IC50 (guinea pig trachea (β2)) [nM]
CC(O)(CNCC(C)(O)C1CCc2ccccc2O1)C1CCc2ccccc2O1 (stereo not drawn) [Compound 86],3.02,"4,166",12600
OC(CNCC(O)C1CCc2ccccc2O1)C1CCc2ccccc2O1 (stereo not drawn) [Compound 88],,,≥ 27100
Cc1ccc2c(c1)CCC(C(O)CNCC(O)C1CCc3cc(C)ccc3O1)O2 (stereo not drawn) [Compound 85],0.579,"5,652",3270
Oc1ccc2c(c1)CCC(C(O)CNCC(O)C1CCc3ccccc3O1)O2 (stereo not drawn) [Compound 130],0.804,1000,804
Cc1cc(C)c2c(c1)OC(C(O)CNCC(O)C1CCc3ccccc3O1)CC2 (stereo not drawn) [Compound 103],6.29,> 4000,> 25200
N#Cc1ccc2c(c1)CCC(C(O)CNCC(O)C1CCc3ccccc3O1)O2 (stereo not drawn) [Compound 51],6.34,> 252,> 1600
OC(CNCC(O)C1CCc2ccccc2O1)C1CCc2ccccc2O1 (stereo not drawn) [Compound 76],2.3,"2,614",5950
OC(CNCC(O)C1CCc2ccccc2O1)C1CCc2ccccc2O1 (stereo not drawn) [Compound 83],1.25,"> 5,435",
OC(CNCC(O)C1CCc2ccccc2O1)C1CCc2ccccc2O1 (stereo not drawn) [Compound 82],6.77,"> 1,000",> 6770
OC(CNCC(O)C1CCc2ccccc2O1)C1CCc2ccccc2O1 (stereo not drawn) [Compound 75],3.52,"2,154",7580
Cc1ccc2c(c1)OC(C(O)CNCC(O)C1CCc3ccccc3O1)CC2 (stereo not drawn) [Compound 97],1.85,"7,042",13000
OC(CNCC(O)C1CCc2ccccc2O1)C1CCc2ccccc2O1 (stereo not drawn) [Compound 81],0.433,"3,938",1710
OC(CNCC(O)C1CCc2cc(F)ccc2O1)C1CCc2cc(F)ccc2O1 (stereo not drawn) [Compound 84],,,> 24700
Cc1cc(C)c2c(c1)OC(C(O)CNCC(O)C1CCc3ccccc3O1)CC2 (stereo not drawn) [Compound 104],3.27,> 1923,> 6290
Cc1ccc2c(c1)CCC(C(O)CNCC(O)C1CCc3ccccc3O1)O2 (stereo not drawn) [Compound 89],1.12,"20,698",23200
Cc1ccc2c(c1)CCC(C(O)CNCC(O)C1CCc3ccccc3O1)O2 (stereo not drawn) [Compound 93],0.417,"13,750",5740
CC(O)(CNCC(O)C1CCc2ccccc2O1)C1CCc2ccccc2O1 (stereo not drawn) [Compound 92],1.04,"12,500",13000
Oc1ccc2c(c1)CCC(C(O)CNCC(O)C1CCc3cc(O)ccc3O1)O2 (stereo not drawn) [Compound 133],1.57,,

Structure (SMILES),IC50 (guinea pig atrium (β1)) [nM],β2 /β1 (guinea pig trachea (β2)),IC50 (guinea pig trachea (β2)) [nM]
OC(CNCC(O)C1CCc2ccccc2O1)C1CCc2ccccc2O1 (stereo not drawn) [Compound 79],0.514,"13,157",6770
"OC(CNCC(O)C1CCc2cc(Br)ccc2O1)C1CCc2cc(Br)ccc2O1 (stereo not drawn) [Compound 10, (B,B)-α,α'-[iminobismethylene]bis[6-bromo-3,4-dihydro-2H-1-benzopyran-2-methanol]]",75.9,,
CS(=O)(=O)Nc1ccc2c(c1)CCC(C(O)CNCC(O)C1CCc3ccccc3O1)O2 (stereo not drawn) [Compound 135],136,,
Cc1ccc2c(c1)CCC(C(O)CNCC(O)C1CCc3ccccc3O1)O2 (stereo not drawn) [Compound 90],1.04,"≥ 25,000",≥ 26100
CC(=O)Nc1ccc2c(c1)CCC(C(O)CNCC(O)C1CCc3ccccc3O1)O2 (stereo not drawn) [Compound 94],≥ 5.86,,
OC(CNCC(O)C1CCc2cc(Br)ccc2O1)C1CCc2ccccc2O1 (stereo not drawn) [Compound 63],< 89.2,,
CC(=O)Nc1ccc2c(c1)CCC(C(O)CNCC(O)C1CCc3ccccc3O1)O2 (stereo not drawn) [Compound 96],3.05,108,328
Cc1cc(C)c2c(c1)OC(C(O)CNCC(O)C1CCc3ccccc3O1)CC2 (stereo not drawn) [Compound 106],,> 1000,
Cc1ccc2c(c1)OC(C(O)CNCC(O)C1CCc3ccccc3O1)CC2 (stereo not drawn) [Compound 99],1.64,"≥ 15,873",≥ 26100
Cc1ccc2c(c1)OC(C(O)CNCC(O)C1CCc3ccccc3O1)CC2 (stereo not drawn) [Compound 98],6.52,"2,400",15600
OC(CNCC(O)C1CCc2ccc3c(c2O1)CCCC3)C1CCc2ccccc2O1 (stereo not drawn) [Compound 110],5.9,,
Cc1ccc2c(c1)CCC(C(O)CNCC(O)C1CCc3cc(C)ccc3O1)O2 (stereo not drawn) [Compound 113],6.29,,
OC(CNCC(O)C1CCc2ccccc2O1)C1CCc2ccccc2O1 (stereo not drawn) [Compound 77],1.46,"4,074",
CC(=O)Nc1ccc2c(c1)CCC(C(O)CNCC(O)C1CCc3ccccc3O1)O2 (stereo not drawn) [Compound 95],0.727,129,93.8
"CC1(C(O)CNCC(O)C2CCc3ccccc3O2)CCc2ccccc2O1 (stereo not drawn) [Compound 140, (A,B)-α-[[[2-(3,4-dihydro-2H-1-benzopyran-2-yl)-2-hydroxyethyl]amino]methyl]-3,4-dihydro-2-methyl-2H-1-benzopyran-2-methanol ethanedioate (1:1). monohydrate]",≤ 6.52,,
"OC(CNCC(O)C1CCc2ccccc2O1)C1CCc2ccccc2O1 (stereo not drawn) [Compound 138, (A,A)-α-[[[2-(3,4-dihydro-2H-1-benzopyran-2-yl)-2-hydroxyethyl]amino]methyl]-3,4-dihydro-2H-1-benzopyran-2-methanol ethanedioate (1:1)]",27.1,> 1000,> 27100
"OC(CNCC(O)C1CCc2ccccc2O1)C1CCc2ccccc2O1 (stereo not drawn) [Compound 74, (A^+ A^+)-α,α'-[iminobis(methylene)]bis[3,4-dihydro-2H-1-benzopyran-2-methanol]]",0.65,"12,500",8120
OC(CNCC(O)C1CCc2cc(F)ccc2O1)C1CCc2ccccc2O1 (stereo not drawn) [Compound 91],2.06,"6,250",12900
